Like-named read-outs stand apart in the source and are kept apart here. One block for each molecule: values may come before it.
Tests used:
[1] = Pharmacokinetics after intravenous and oral treatment, plasma LC-MS/MS; type: in vivo, male Han Wistar rats; conditions: rat; for AUC(0-t) / AUC(0-inf) / half-life / clearance / Vd / Cmax / Tmax / bioavailability: male, Han Wistar, plasma; for AUC(0-inf): extrapolated to infinity; for half-life / clearance / Vd: extrapolated, indicative only; for clearance: read-out: CLp* (converted); for Vd: read-out: Vss*
Method: The pharmacokinetics of compounds E7, E17 and E18, were studied in male Han Wistar rats. The rats were treated intravenously and orally (n=3 for each dose route) with compounds formulated as solutions. The rats were fitted with a jugular cannula for serial sampling. A full profile was acquired from each rat. Plasma extracts were quantitatively analyzed using a specific and sensitive LC-MS/MS bioanalytical method. Inter-individual variations between the three rats in each group were limited (CV for pharmacokinetic parameters was below 50%). […] A range of clearance values were obtained for the different structure, ranging from low to moderate values (from 43 to 250 ml/h). After oral administration, absorption was quite fast with a clear maximum concentration reached by the first sampling time-point of 15 minutes for all compounds.

hEP4 receptors [2] = target: T1, hEP4 receptors (Homo sapiens, UniProt P35408); test: [3H]-Prostaglandin E2 membrane binding assay
T1 construct: membrane fraction used
T1 sequence (P35408 whole entry): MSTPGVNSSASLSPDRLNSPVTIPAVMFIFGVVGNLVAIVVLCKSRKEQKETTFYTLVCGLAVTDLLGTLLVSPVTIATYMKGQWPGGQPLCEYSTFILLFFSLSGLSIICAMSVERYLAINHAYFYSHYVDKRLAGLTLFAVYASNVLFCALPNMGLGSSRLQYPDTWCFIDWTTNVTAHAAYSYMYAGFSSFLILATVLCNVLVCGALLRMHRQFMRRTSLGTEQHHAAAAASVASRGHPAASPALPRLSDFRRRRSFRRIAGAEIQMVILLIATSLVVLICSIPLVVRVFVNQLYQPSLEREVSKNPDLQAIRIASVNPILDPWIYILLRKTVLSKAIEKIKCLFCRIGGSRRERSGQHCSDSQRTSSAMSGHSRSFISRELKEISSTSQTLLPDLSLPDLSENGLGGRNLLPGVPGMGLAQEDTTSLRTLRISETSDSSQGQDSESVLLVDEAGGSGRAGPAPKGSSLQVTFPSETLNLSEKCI
Method: (§1) The cDNA clone of human EP4 receptor (NM_000958.2) was obtained from InvitrogenTM: Ultimate™ ORF Clone Collection - Clone ID IOH46525. The coding sequence was subcloned in expression vector pcDNATM6.2/V5-DEST by Gateway technology (InvitrogenTM). Human embryonic kidney cells (HEK-293) were stably transfected with expression vector for human EP4 receptor in according to the method described in FuGENE®6 Transfection Reagent's manual (Roche Applied Science®).
(§2) The EP4 transfected cells were grown in Dulbecco's modified Eagle's medium containing 10% fetal bovine serum and 10 µg/ml Blasticidin S HCl (selection medium) at 37°C in a humidified atmosphere of 5% CO2 in air. For the membrane preparation, cells in flask were harvested by hypotonical/mechanical lysis with chilled (4°C) TE buffer (5mM TRIS, 5mM ethylenediamine tetra-acetic acid (EDTA), pH 7.4). Cells were detached and lysed with 10ml of hypotonic lysis buffer and by scraping. The cell lysate was vortexed for 30 sec and centrifuged at 40000x g at 4°C for 22min.
The membrane pellet was resuspended in the same buffer (5mM TRIS, 5mM ethylenediamine tetra-acetic acid (EDTA), pH 7.4), and protein concentration was determined by Bradford method (Bio-Bad® assay). This membrane preparation was stored at -80°C freezer until use for binding assay. ([^3H]-PGE2) membranes binding assays toward hEP4 receptors (human EP4/HEK293 transfectant, see above) and hEP2 receptors (human EP2/HEK293 transfectant, purchased from PerkinElmer Inc) were performed in 10 mM MES-KOH buffer pH6, containing 10 mM MgCl2 and 1 mM CaCl2 for EP4 binding assay or 50 mM Tris-Cl, BSA 0.5% for EP2 binding assay (according to supplier indication) . Ten microgram of protein from membrane fractions were incubated in a total volume of 0.1ml (EP4) or 0.2ml (EP2) with 1nM (EP4) or 3nM (EP2) [^3H]-PGE2 (PerkinElmer Inc, 171Ci/mmol). In both assays to determine the total binding or non specific binding, 1% DMSO or 1µM prostaglandin E2 (EP4) or 100 µM (EP2) were added to reaction mixtures, respectively. Incubation was conducted in a polypropylene 96 multiwell for 90 min (EP4) or 60 min (EP2) at room temperature prior to separation of the bound and free radioligand by vacuum manifold rapid filtration on glass fiber filters (Unifilter GFB96, PerkinElmer Inc) pre-soaked in 0.3% polyethyleneimine. Filters were washed with ice cold buffer pH 7.4 (50mM HEPES, NaCl 500mM, BSA 0.1% for EP4 binding assay or 50mM Tris-Cl for EP2 binding assays) and the residual [^3H]-PGE2 binding determined by solid scintillation counter (TopCount , PerkinElmer Inc).
The affinity (Ki) of each compound was calculated according to the Cheng-Prousoff equation: Ki = IC50/(1+([C]/Kd)). Results were expressed as pKi (- log10 Ki (M)

hEP4 receptors [3] = target: T1, hEP4 receptors; test: cAMP assay (AlphaScreen) on human EP4 membrane of transfected cells, antagonism of PGE2; type: biochemical; conditions: HEK293 cell membrane stimulated with PGE2 3nM; read-out: functional IC50
Method: as §1, §2
The assay is based on the competition between endogenous cAMP and exogenously added biotinylated cAMP. The capture of cAMP is achieved by using a specific antibody conjugated to Donor beads. Cell membranes prepared as described above, were resuspended in 1 ml stimulation buffer (HBSS 1X + BSA 0.1% + IBMX 0.5mM + HEPES 5mM + MgCl2 10mM + GTP 1 nM + GDP 10µM + ATP 100µM - pH 7.4). Cell membranes were dispensed into white 384-well microplates at final concentration of 1µg/well and used for the determination of cAMP with the alphascreen cAMP functional assay (EnVision - PerkinElmer). Cell membrane/anti-cAMP Acceptor beads mix (5 µl) and a mixture of analysed compounds (dissolved in 100% DMSO to a final maximal concentration of 0.01% DMSO)/PGE2 (5 µl) were incubated at room temperature (22-23°C) for 30 min in the dark. The Biotinylated-cAMP and donor beads (15 µl) were dispensed into each well to start the competition reaction. After 1 h incubation RT (22-23°C) in the dark the plate was read using EnVision platform to determine the cAMP level (excitation: 680nm; emission:520,620nm). In each experiment:
cAMP standard curve (concentration range from 1x10-6 to 1x10-11 M in log intervals) with a negative control (no cAMP)
a positive control: forskolin 10µM
Antagonism studies were performed stimulating HEK293 cell membrane with PGE2 3nM. The AlphaScreen signal is plotted as a function of log concentration of cAMP and functional IC50 is determined. IC50 value is calculated by linear regression.

[4] = read-out: Binding pKi (converted)
[5] = human EP4/HEK293 transfectant membranes, 1nM [3H]-PGE2, Ki from IC50 by Cheng-Prousoff, pKi = -log10 Ki (M)

SMILES: O=C(O)c1ccc(C2(NC(=O)C3CC4(CCN3Cc3ccc(C(F)(F)F)cc3)CC4)CC2)cc1 (single isomer, unassigned) [Example E7, 4-(1-(6-(4-(trifluoromethyl)benzyl)-6-azaspiro[2.5]octane-5-carboxamido)cyclopropyl)benzoic acid]
AUC(0-t) ([1]; iv, 5 mg/kg): 29200 ng·h/mL
AUC(0-inf) ([1]; iv, 5 mg/kg): 31800 ng·h/mL
half-life ([1]; iv, 5 mg/kg): 7.4 h
clearance ([1]; iv, 5 mg/kg): 0.717 mL/min
Vd ([1]; iv, 5 mg/kg): 0.395 L
AUC(0-t) ([1]; po, 5 mg/kg): 22900 ng·h/mL
Cmax ([1]; po, 5 mg/kg): 5330 ng/mL
Tmax ([1]; po, 5 mg/kg): 0.5 h
bioavailability ([1]; po, 5 mg/kg, absolute oral bioavailability): 78%
AUC(0-inf) ([1]; po, 5 mg/kg): 24900 ng·h/mL
half-life ([1]; po, 5 mg/kg): 6.7 h
Tlast ([1]; iv, 5 mg/kg): 24 h
Tlast ([1]; po, 5 mg/kg): 24 h
Ki (hEP4 receptors [2]; [4]): 3.16e-08 M
IC50 (hEP4 receptors [3]): 22 nM

Ki (hEP4 receptors [2]; [5]): 6.31e-09 M
IC50 (hEP4 receptors [3]): 4 nM
SMILES: O=C(O)c1ccc(C2(NC(=O)C3CC4(CCN3Cc3cccc(C(F)(F)F)c3)CC4)CC2)cc1 (single isomer, unassigned) [Example E9, 4-(1-(6-(3-(trifluoromethyl)benzyl)-6-azaspiro[2.5]octane-5-carboxamido)cyclopropyl)benzoic acid]

Ki (hEP4 receptors [2]; [4]): 3.98e-08 M
IC50 (hEP4 receptors [3]): 29 nM
SMILES: C[C@H](NC(=O)C1CC2(CCN1Cc1ccc(C(F)(F)F)cc1)CC2)c1ccc(C(=O)O)cc1 (single isomer, unassigned) [Example E10]

Ki (hEP4 receptors [2]; [5]): 1.26e-08 M
IC50 (hEP4 receptors [3]): 8 nM
SMILES: C[C@H](NC(=O)C1CC(C)(C)CCN1Cc1ccc(C(F)(F)F)cc1)c1ccc(C(=O)O)cc1 (single isomer, unassigned) [Example E13]

AUC(0-t) ([1]; iv, 1 mg/kg): 1260 ng·h/mL
AUC(0-inf) ([1]; iv, 1 mg/kg): 1390 ng·h/mL
half-life ([1]; iv, 1 mg/kg): 9.3 h
clearance ([1]; iv, 1 mg/kg): 3.17 mL/min
Vd ([1]; iv, 1 mg/kg): 1.7 L
AUC(0-t) ([1]; po, 1 mg/kg): 1170 ng·h/mL
Cmax ([1]; po, 1 mg/kg): 556 ng/mL
Tmax ([1]; po, 1 mg/kg): 0.5 h
AUC(0-inf) ([1]; po, 1 mg/kg): 1200 ng·h/mL
half-life ([1]; po, 1 mg/kg): 5.1 h
bioavailability ([1]; po, 1 mg/kg): 93%
Tlast ([1]; iv, 1 mg/kg): 24 h
Tlast ([1]; po, 1 mg/kg): 24 h
Ki (hEP4 receptors [2]; [4]): 6.31e-09 M
IC50 (hEP4 receptors [3]): 11 nM
SMILES: O=C(O)c1ccc(C2(NC(=O)C3CC(F)(F)CCN3Cc3ccc(C(F)(F)F)cc3)CC2)cc1 (single isomer, unassigned) [Example E18, 4-(1-(4,4-difluoro-1-(4-(trifluoromethyl)benzyl)piperidine-2-carboxamido)cyclopropyl)benzoic acid]

Ki (hEP4 receptors [2]; [4]): 1e-08 M
IC50 (hEP4 receptors [3]): 11.5 nM
SMILES: O=C(O)c1ccc(C2(NC(=O)C3CC4CC4CN3Cc3ccc(C(F)(F)F)cc3)CC2)cc1 (single isomer, unassigned) [Example E23, 4-(1-(3-(4-(trifluoromethyl)benzyl)-3-azabicyclo[4.1.0]heptane-4-carboxamido)cyclopropyl)benzoic acid]

SMILES: O=C(O)c1ccc(C2(NC(=O)[C@H]3CCCCN3Cc3ccc(C(F)(F)F)cc3)CC2)cc1 [Example E4, lithium (R)-4-(1-(1-(4-(trifluoromethyl)benzyl)piperidine-2-carboxamido)cyclopropyl)benzoate]
IC50 (hEP4 receptors [3]): 32 nM

Ki (hEP4 receptors [2]; [5]): 2e-08 M
IC50 (hEP4 receptors [3]): 9 nM
SMILES: C[C@H](NC(=O)[C@H]1CC(F)(F)CCN1Cc1ccc(C(F)(F)F)cc1)c1ccc(C(=O)O)cc1 [Example E16, 4-((S)-1-((R)-4,4-difluoro-1-(4-(trifluoromethyl)benzyl)piperidine-2-carboxamido)ethyl)benzoic acid]

Ki (hEP4 receptors [2]; [4]): 3.16e-09 M
IC50 (hEP4 receptors [3]): 43 nM
SMILES: O=C(O)c1ccc(C2(NC(=O)[C@H]3CCC4CC4N3Cc3ccc(C(F)(F)F)cc3)CC2)cc1 (stereo partly drawn) [Example E25, 4-(1-((3R)-2-(4-(trifluoromethyl)benzyl)-2-azabicyclo[4.1.0]heptane-3-carboxamido)cyclopropyl)benzoic acid]

Ki (hEP4 receptors [2]; [4]): 1.58e-09 M
IC50 (hEP4 receptors [3]): 42 nM
SMILES: C[C@H](NC(=O)[C@H]1CCC2CC2N1Cc1ccc(C(F)(F)F)cc1)c1ccc(C(=O)O)cc1 (stereo partly drawn) [Example E26, 4-((1S)-1-((3R)-2-(4-(trifluoromethyl)benzyl)-2-azabicyclo[4.1.0]heptane-3-carboxamido)ethyl)benzoic acid]

SMILES: C[C@H](NC(=O)[C@H]1CCCN1Cc1ccc(C(F)(F)F)cc1)c1ccc(C(=O)O)cc1 [Example E27, lithium 4-((S)-1-((R)-1-(4-(trifluoromethyl)benzyl)pyrrolidine-2-carboxamido)ethyl)benzoate]
IC50 (hEP4 receptors [3]): 50 nM

Ki (hEP4 receptors [2]; [4]): 2.51e-09 M
IC50 (hEP4 receptors [3]): 16 nM
SMILES: O=C(O)c1ccc(C2(NC(=O)[C@H]3C[C@H]4C[C@H]4N3Cc3cccc(C(F)(F)F)c3)CC2)cc1 [Example E29, 4-(1-((1R,3R,5R)-2-(3-(trifluoromethyl)benzyl)-2-azabicyclo[3.1.0]hexane-3-carboxamido)cyclopropyl)benzoic acid]

Ki (hEP4 receptors [2]; [5]): 5.01e-09 M
IC50 (hEP4 receptors [3]): 21 nM
SMILES: O=C(O)c1ccc(C2(NC(=O)[C@H]3C[C@H]4C[C@H]4N3Cc3ccc(C(F)(F)F)cc3)CC2)cc1 [Example E30, 4-(1-((1R,3R,5R)-2-(4-(trifluoromethyl)benzyl)-2-azabicyclo[3.1.0]hexane-3-carboxamido)cyclopropyl)benzoic acid]
